Laboratory results taken from article PMC10475017, “Design, synthesis, computational study and cytotoxic evaluation of some new quinazoline derivatives containing pyrimidine moiety” (Scientific Reports, 2023).

Experiments:
A549 cell line [1] = experiment: Annexin V/PI apoptosis detection by flow cytometry; type: cell-based, human; conditions: 72 h
Description: Annexin V was applied to detect the phosphatidyl serin, which moved to outer membrane during apoptosis, and PI was used to distinguish live and dead cells.
After the incubation time, AnnexinV/PI staining using eBioscience™ Annexin V apoptosis detection kit (Invitrogen). The cells were gently harvested and washed once with 1X phosphate buffered saline (PBS), and once with 1000 μL 1X binding buffer. In the next step, the cells were suspended in 100 μL binding buffer containing 5 μL fluorescein isothiocyanate conjugated (FITC) Annexin V for 15 min and 5 μL Propodium Iodide (PI) solution. The cells were then acquired on BD FACS Calibur™ flow cytometry (BD Biosciences, San Jose, CA, USA) and apoptosis rates were calculated as the sum of early apoptosis and late apoptosis using Flowjo software.

A549 cell line [2] = experiment: Cell cycle analysis by PI flow cytometry; type: cell-based, human; conditions: 72 h; for cell cycle S population: untreated cells 4.46%
Description: For this purpose, A549 cells were treated with two concentrations of 6n (10 and 15 μM) for 72 h (Fig. 6). […] A slight decrease in the G2/M population was also observed.
The effect of 6n was also assessed according to our previous protocol. Briefly, 1 × 10^5 A549 cells were seeded in a 24-well plate in […] complete cell culture media and after 24 h, were treated with two concentrations of 6n (10 and 15 μM). After 72 h, the cells were harvested and washed twice with cold 1X pbs and stabilized with cold ethanol (70%) in drop-wised manner while vortexing. After keeping one day in the freezer, the fixed cells were washed with 1X pbs and treated with a mixture of ribonuclease (10 µg/ml) (Sigma-Aldrich, Germany) to remove RNA, and Propidium Iodide (PI, 20 µg/ml) (Sigma-Aldrich, Germany) to stain DNA. The cells were acquired on BD FACS Calibur™ flow cytometry (BD Biosciences, San Jose, CA, USA). The data were analyzed with FlowJo software packages version 10.

SMILES	melting point [°C]	further results
Cn1c(=O)cc(Cl)n(Cc2nc3ccc(Br)cc3c(=O)n2-c2ccccc2)c1=O [Compound 6a, 1-((6-Bromo-4-Oxo-3-Phenyl-3,4-Dihydroquinazolin-2-Yl)Methyl)-6-Chloro-3-Methylpyrimidine-2,4(1H,3H)-Dione]	246 to 248	–
Cn1c(=O)cc(Cl)n(Cc2nc3ccc(Br)cc3c(=O)n2-c2cccc(F)c2)c1=O [Compound 6c, 1-((6-Bromo-3-(3-Fluorophenyl)-4-Oxo-3,4-Dihydroquinazolin-2-Yl)Methyl)-6-Chloro-3-Methylpyrimidine-2,4(1H,3H)-Dione]	243 to 244	–
Cn1c(=O)cc(Cl)n(Cc2nc3ccc(Br)cc3c(=O)n2-c2ccc(Cl)cc2)c1=O [Compound 6g, 1-((6-Bromo-3-(4-Chlorophenyl)-4-Oxo-3,4-Dihydroquinazolin-2-Yl)Methyl)-6-Chloro-3-Methylpyrimidine-2,4(1H,3H)-Dione]	225 to 226	–
Cn1c(=O)cc(Cl)n(Cc2nc3ccc(Br)cc3c(=O)n2-c2ccc(F)c(Cl)c2)c1=O [Compound 6n, 1-((6-Bromo-3-(3-Chloro-4-Fluorophenyl)-4-Oxo-3,4-Dihydroquinazolin-2-Yl)Methyl)-6-Chloro-3-Methylpyrimidine-2,4(1H,3H)-Dione]	–	early apoptotic cells Q3 (Av pos/PI neg) (A549 cell line [1]; 5 µM): 2.61%; late apoptotic cells Q2 (Av pos/PI pos) (A549 cell line [1]; 5 µM): 21.2%; apoptotic death (sum of early and late apoptosis) (A549 cell line [1]; 15 µM): 65.08%; induction of apoptosis (in words) (A549 cell line [1]; 5, 10, 15 µM): significantly induced apoptotic death in the dose dependent manner; cell cycle S population (A549 cell line [2]; 10 μM): 8.91%; cell cycle S population (A549 cell line [2]; 15 μM): 11.6%; effect on cell cycle (in words) (A549 cell line [2]; 10 and 15 μM): could induce arrest at S-phase
Cn1c(=O)cc(Cl)n(Cc2nc3ccc(Br)cc3c(=O)n2-c2ccc(F)cc2)c1=O [Compound 6f., 1-((6-Bromo-3-(4-Fluorophenyl)-4-Oxo-3,4-Dihydroquinazolin-2-Yl)Methyl)-6-Chloro-3-Methylpyrimidine-2,4(1H,3H)-Dione]	240 to 242	–
Cn1c(=O)cc(Cl)n(Cc2nc3ccc(Br)cc3c(=O)n2-c2cccc(Br)c2)c1=O [Compound 6e, 1-((6-Bromo-3-(3-Bromophenyl)-4-Oxo-3,4-Dihydroquinazolin-2-Yl)Methyl)-6-Chloro-3-Methylpyrimidine-2,4(1H,3H)-Dione]	251 to 252	–
Cn1c(=O)cc(Cl)n(Cc2nc3ccc(Br)cc3c(=O)n2-c2cccc(Cl)c2)c1=O [Compound 6d, 1-((6-Bromo-3-(3-Chlorophenyl)-4-Oxo-3,4-Dihydroquinazolin-2-Yl)Methyl)-6-Chloro-3-Methylpyrimidine-2,4(1H,3H)-Dione]	259 to 260	–
Cn1c(=O)cc(Cl)n(Cc2nc3ccc(Br)cc3c(=O)n2-c2cccc(C#N)c2)c1=O [Compound 6b, 3-(6-Bromo-2-((6-Chloro-3-Methyl-2,4-Dioxo-3,4-Dihydropyrimidin-1(2H)-Yl)Methyl)-4-Oxoquinazolin-3(4H)-Yl) Benzonitrile]	255 to 257	–
